Assay results from Sander's compilation of Henry's law constants (doi:10.1021/es00034a021).

Assay: Henry solubility constant Hcp at 298.15 K (mol/(m3 Pa))
Conditions: reference: Tse et al. (1992)

Row | SMILES | Henry solubility constant Hcp
1 | ClCC(Cl)(Cl)Cl [1,1,1,2-tetrachloroethane] | 0.0045
2 | CC(Cl)(Cl)Cl [1,1,1-trichloroethane] | 0.00063
3 | ClC(Cl)C(Cl)Cl [1,1,2,2-tetrachloroethane] | 0.026
4 | ClCC(Cl)Cl [1,1,2-trichloroethane] | 0.011
5 | C=C(Cl)Cl [1,1-dichloroethene] | 0.00035
6 | CC(Cl)CCl (stereo not drawn) [1,2-dichloropropane] | 0.0038
7 | ClC(Cl)Br [bromodichloromethane] | 0.0048
8 | ClC(Br)Br [dibromochloromethane] | 0.0093
9 | BrCBr [dibromomethane] | 0.011
10 | ClCCl [dichloromethane] | 0.0039
11 | ClC(Cl)(Cl)Cl [tetrachloromethane] | 0.00038
12 | BrC(Br)Br [tribromomethane] | 0.019
13 | ClC=C(Cl)Cl [trichloroethene] | 0.0011
